Where a name gives a salt, the structure may show the parent alone. Read-outs that look alike come from different tables or passages of the source. Values belong to the molecule of their own block, whether it stands above or below them.
Legend:
[1] = In vitro trial: drug release from extruded suppositories in 150 ml water at 37° C.; format: physicochemical; conditions: phenylephrine hydrochloride vs lignocaine hydrochloride, alone and together (FIGS. 6-8)
Description: Mixes for the in vivo and the in vitro trails were made by dissolving the required quantities of drug in water which was then added to the polymer and thoroughly mixed using a spatula. […] The resulting damp, spongy particles were squeezed together by hand to form a dough-like mixture. The mixes were extruded through a nozzle of a 50 ml plastic syringe to form a long rod (9 mm diameter). Immediately after, suppositories were made by cutting the rod into 3 cm length and were stored in an air-tight container prior to use.
Drug release rates were studied in four ways:
(i) release from suppositories containing 20 mg phenylephrine hydrochloride only (in duplicate).
(iii) release from suppositories containing both drugs in the above amounts (in triplicate).
The concentration of drug in the aliquot was immediately determined spectrophotometrically (q.v.) after which the aliquot sample was returned to the solution. […]
Analytical background effects (due to the polymer) were measured by repeating the spectrophotometric procedure using a suppository containing no drug. […]
The absorbences of the samples taken during the in vitro trial were measured on the spectrophotometer and the concentrations of the dissolved drugs determined by reference to the calibration curves.
Drug release rates were measured in the in vitro trials for suppositories containing each drug alone and both drugs together. […]

[2] = male beagle
Description: Four smaller pieces were randomly cut from the remainder and placed into weighed vials. Distilled water (10 ml) was added to each vial and the contents were allowed to dissolve overnight. Triplicate aliquots (0.1 ml) were removed for the determination of radioactivity as for plasma.
The evacuated suppository was separated from the faecal pellet and weighed. The sample was then homogenised with a known quantity of purified sand (sand to sample ratio, 2:1).
Four pieces of the sand/suppository mixture were placed in weighed vials. Distilled water (4 ml) was added to each vial and the contents were allowed to dissolve overnight. Unisolve 1 (10 ml) was added and the resulting translucent gel was mixed by vigorous shaking. The samples were assayed for radioactivity.
They were then re-weighed and the moisture content of the evacuated suppository was determined.

[3] = male beagle, rectal, dose 38.93 μCi

Molecule: CCN(CC)CC(=O)Nc1c(C)cccc1C [lignocaine hydrochloride]
proportion of drug released, comparison of drugs [1]: approximately the same

proportion of drug released, comparison of drugs [1]: approximately the same
Molecule: CNC[C@H](O)c1cccc(O)c1 [phenylephrine hydrochloride]

Molecule: [^14 C]-lignocaine hydrochloride
time of maximum plasma concentration of radioactivity (dog, rectal): 8 h
maximum plasma concentration of radioactivity (dog, rectal, at 8 h): 0.00295 %/ml of the administered radioactive dose
% total administered dose, liver (male beagle, 48 h): 0.36%
% total administered dose, rectal contents (male beagle, 48 h): 0.086%
% total administered dose, rectum (male beagle, 48 h): 0.026%
cumulative % total administered dose, through liver (male beagle, 48 h): 0.375%
cumulative % total administered dose, through rectal contents (male beagle, 48 h): 0.487%
cumulative % total administered dose, through rectum (male beagle, 48 h): 0.401%
cumulative % total administered dose, through urine and faeces (male beagle, 48 h): 48.687%
total radioactivity recovered, bile (male beagle, 48 h): 0.006 μCi
total radioactivity recovered, liver (male beagle, 48 h): 0.14 μCi
total radioactivity recovered, rectal contents (male beagle, 48 h): 0.03 μCi
total radioactivity recovered, rectum (male beagle, 48 h): 0.01 μCi
total radioactivity recovered, urine and faeces (male beagle, 48 h): 18.77 μCi
concentration of radioactivity in plasma (male beagle, rectal, 0 h): 0 % administered radioactive dos
radioactive drug equivalents in plasma (male beagle, rectal, 0 h): 0 μg equivalents/ml plasma
concentration of radioactivity in plasma (male beagle, rectal, 0.5 h): 0.00081 % administered radioactive dos
radioactive drug equivalents in plasma (male beagle, rectal, 0.5 h): 0.75 μg equivalents/ml plasma
concentration of radioactivity in plasma (male beagle, rectal, 1 h): 0.0014 % administered radioactive dos
radioactive drug equivalents in plasma (male beagle, rectal, 1 h): 1.33 μg equivalents/ml plasma
concentration of radioactivity in plasma (male beagle, rectal, 2 h): 0.0022 % administered radioactive dos
radioactive drug equivalents in plasma (male beagle, rectal, 2 h): 2.08 μg equivalents/ml plasma
concentration of radioactivity in plasma (male beagle, rectal, 4 h): 0.00291 % administered radioactive dos
radioactive drug equivalents in plasma (male beagle, rectal, 4 h): 2.72 μg equivalents/ml plasma
concentration of radioactivity in plasma (male beagle, rectal, 8 h): 0.00295 % administered radioactive dos
radioactive drug equivalents in plasma (male beagle, rectal, 8 h): 2.75 μg equivalents/ml plasma
concentration of radioactivity in plasma (male beagle, rectal, 24 h): 0.00267 % administered radioactive dos
radioactive drug equivalents in plasma (male beagle, rectal, 24 h): 2.49 μg equivalents/ml plasma
concentration of radioactivity in plasma (male beagle, rectal, 48 h): 0.00062 % administered radioactive dos
radioactive drug equivalents in plasma (male beagle, rectal, 48 h): 0.58 μg equivalents/ml plasma
total radioactivity excreted, total (male beagle, rectal, 48 h, dose 38.93 μCi): 18.77 μCi
total radioactivity excreted, 0-24 h urine [3]: 13.45 μCi
total radioactivity excreted, 24-48 h urine [3]: 2.19 μCi
total radioactivity excreted, total faeces [3]: 3.13 μCi
% total administered dose in evacuated suppository [2]: 27.58%
radioactive dose remaining in evacuated suppository ([2]; dose 38.93 μCi): 10.74 μCi
